Data on 24 molecules can be found in patent US20120196824A1, “THERAPEUTIC AGENT FOR CEREBRAL INFARCTION” (MITSUBISHI TANABE PHARMA CORPORATION, priority 2009, published 2012).

pIC50: −log10 of the molar value.

The target in this assay is T1, Human-recombinant-S-Adenosyl-L-Homocysteine Hydrolase (Homo sapiens, UniProt P23526).
T1 construct: purchased Diazyme Laboratories
T1 sequence (P23526 whole entry): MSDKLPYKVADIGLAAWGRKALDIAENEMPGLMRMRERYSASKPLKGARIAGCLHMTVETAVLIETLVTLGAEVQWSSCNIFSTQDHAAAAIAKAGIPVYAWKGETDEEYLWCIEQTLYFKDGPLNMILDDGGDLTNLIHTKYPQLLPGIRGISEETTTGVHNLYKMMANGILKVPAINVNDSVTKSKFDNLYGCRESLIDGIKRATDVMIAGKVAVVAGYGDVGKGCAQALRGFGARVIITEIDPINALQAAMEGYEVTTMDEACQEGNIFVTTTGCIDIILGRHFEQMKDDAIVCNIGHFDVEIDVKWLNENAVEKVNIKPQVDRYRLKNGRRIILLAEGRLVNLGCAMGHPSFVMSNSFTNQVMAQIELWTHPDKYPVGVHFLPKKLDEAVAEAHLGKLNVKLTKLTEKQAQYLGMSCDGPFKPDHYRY
In words: Measurement of enzyme inhibitory activity (hydrolysis of S-Adenosyl-L-Homocysteine, HPLC). In kind it is biochemical. The following applies: S-Adenosyl-L-Homocysteine 10 μM, pH 7.2, 37° C., 15 min. As to the method: The enzyme inhibitory activity of the compounds of the Examples was measured using the hydrolysis activity of S-Adenosyl-L-Homocysteine as an index. The measurement method was modification of the method of Henry H. Richards et al. (J. Biol. Chem. 253, 4476-4480, 1978). That is, S-Adenosyl-L-Homocysteine (10 μM) and Adenosine Deaminase (Roche) (4 units) were added to 50 mM phosphate buffer (pH 7.2, containing 1 mM EDTA) with the total amount being 200 μl, and to the solution were added a test substance and then Human-recombinant-S-Adenosyl-L-Homocysteine Hydrolase (50 ng, Diazyme Laboratories) to start the reaction, and the mixture was incubated at 37° C. for 15 min. The reaction was quenched by the addition of 1N aqueous perchloric solution (20 μl), and the mixture was centrifuged under the conditions of 10000 rpm, 5 min, 4° C. The supernatant was collected, and the amount of S-Adenosyl-L-Homocysteine after the reaction was quantified by HPLC. The column used was a reversed-phase column. The detailed conditions of HPLC were as follows.
column used: Wakopak^R HandyODS 150*4.6 mm (Wako Pure Chemical Industries, Ltd.) elution condition: 1.0 ml/min elution solvent: 0.1M acetate buffer (pH 4.0) containing 10 mM 1-heptanesulfonic acid containing 4% acetonitrile wavelength: 258 nm (UV) The inhibitory rate was determined with the amount of decrease in S-Adenosyl-L-Homocysteine before and after the reaction without using the test substance as 100%.
Inhibitory rate (%)={(amount of decrease of S-Adenosyl-L-Homocysteine in the presence of test substance)/(amount of decrease of S-Adenosyl-L-Homocysteine in the absence of test substance)}×100
What is called pIC50 is the IC50 on a negative log10 scale, so that one unit is a factor of ten. For `Cc1nc(-c2ccc(C)c(N(CC(=O)NCCNC(C)C)CC(=O)N(C)N3Cc4ccccc4C3)c2)no1` [Example 15, N^2-{2-[1,3-dihydro-2H-isoindol-2-yl(methyl)amino]-2-oxoethyl}-N^2-[2-methyl-5-(5-methyl-1,2,4-oxadiazol-3-yl)phenyl]-N^1-[2-(isopropylamino)ethyl]glycinamide], the negative logarithm of the IC50 (pIC50) is 7.77.

For `CCNCCNC(=O)CN(CC(=O)N(C)N1Cc2ccccc2C1)c1cc(-c2noc(C)n2)ccc1C` [Example 16, N^2-{2-[1,3-dihydro-2H-isoindol-2-yl(methyl)amino]-2-oxoethyl}-N^2-[2-methyl-5-(5-methyl-1,2,4-oxadiazol-3-yl)phenyl]-N^1-[2-(ethylamino)ethyl]glycinamide], the pIC50 was 7.72.

Turning to `CCNCCNC(=O)CN(CC(=O)N(C)N1Cc2cccc(F)c2C1)c1cc(-c2noc(C)n2)ccc1C` [Example 19, N^2-{2-[(4-fluoro-1,3-dihydro-2H-isoindol-2-yl)(methyl)amino]-2-oxoethyl}-N^2-[2-methyl-5-(5-methyl-1,2,4-oxadiazol-3-yl)phenyl]-N^1-[2-(ethylamino)ethyl]glycinamide], the negative logarithm of the IC50 (pIC50) was 7.48.

As to `CCNCCNC(=O)CN(CC(=O)N(C)C1Cc2ccccc2C1)c1cc(-c2noc(C)n2)ccc1C` [Example 26, N^2-{2-[2,3-dihydro-1H-inden-2-yl(methyl)amino]-2-oxoethyl}-N^2-[2-methyl-5-(5-methyl-1,2,4-oxadiazol-3-yl)phenyl]-N^1-[2-(ethylamino)ethyl]glycinamide], the negative logarithm of the IC50 (pIC50) was 7.25. As for `CC(=O)c1ccc(C)c(N(CC(=O)NCCNC(C)C)CC(=O)N(C)N2Cc3ccccc3C2)c1` [Example 56, N^2-(5-acetyl-2-methylphenyl)-N^2-{2-[1,3-dihydro-2H-isoindol-2-yl(methyl)amino]-2-oxoethyl}-N^1-[2-(isopropylamino)ethyl]glycinamide], the figure is 7.28. For `CCNCCNC(=O)CN(CC(=O)N(C)N1Cc2ccccc2C1)c1cc(C(C)=O)ccc1C` [Example 57, N^2-(5-acetyl-2-methylphenyl)-N^2-{2-[1,3-dihydro-2H-isoindol-2-yl(methyl)amino]-2-oxoethyl}-N^1-[2-(ethylamino)ethyl]glycinamide], the pIC50 was 7.38. As for `Cc1noc(-c2ccc(C)c(N(CC(=O)NCCNC(C)C)CC(=O)N(C)N3Cc4ccccc4C3)c2)n1` [Example 84, N^2-{2-[1,3-dihydro-2H-isoindol-2-yl(methyl)amino]-2-oxoethyl}-N^2-[2-methyl-5-(3-methyl-1,2,4-oxadiazol-5-yl)phenyl]-N^1-[2-(isopropylamino)ethyl]glycinamide], the figure is 7.47; as for `CCNCCNC(=O)CN(CC(=O)N(C)N1Cc2ccccc2C1)c1cc(-c2nc(C)no2)ccc1C` [Example 85, N^2-{2-[1,3-dihydro-2H-isoindol-2-yl(methyl)amino]-2-oxoethyl}-N^2-[2-methyl-5-(3-methyl-1,2,4-oxadiazol-5-yl)phenyl]-N^1-[2-(ethylamino)ethyl]glycinamide], 7.77; as for `CCNCCNC(=O)CN(CC(=O)N(C)N1Cc2ccc(F)cc2C1)c1cc(-c2nc(C)no2)ccc1C` [Example 87, N^2-{2-[(5-fluoro-1,3-dihydro-2H-isoindol-2-yl)(methyl)amino]-2-oxoethyl}-N^2-[2-methyl-5-(3-methyl-1,2,4-oxadiazol-5-yl)phenyl]-N^1-[2-(ethylamino)ethyl]glycinamide], 7.74. With `CCNCCNC(=O)CN(CC(=O)N(C)N1Cc2ccccc2C1)c1cc(-c2ncccn2)ccc1C` [Example 129, N^2-{2-[1,3-dihydro-2H-isoindol-2-yl(methyl)amino]-2-oxoethyl}-N^2-(2-methyl-5-pyrimidin-2-ylphenyl)-N^1-[2-(ethylamino)ethyl]glycinamide] the figure was 8.00; with `CCNCCNC(=O)CN(CC(=O)N(C)N1Cc2ccccc2C1)c1cc2c(cc1C)N(CC)C(=O)CC2` [Example 177, N^2-{2-[1,3-dihydro-2H-isoindol-2-yl(methyl)amino]-2-oxoethyl}-N^2-(1-ethyl-7-methyl-2-oxo-1,2,3,4-tetrahydroquinolin-6-yl)-N^1-[2-(ethylamino)ethyl]glycinamide], 7.34; with `Cc1cc2onc(C)c2cc1N(CC(=O)NCCNC(C)C)CC(=O)N(C)N1Cc2ccccc2C1` [Example 180, N^2-{2-[1,3-dihydro-2H-isoindol-2-yl(methyl)amino]-2-oxoethyl}-N^2-(3,6-dimethyl-1,2-benzisoxazol-5-yl)-N^1-[2-(isopropylamino)ethyl]glycinamide], 7.82. With `CCNCCNC(=O)CN(CC(=O)N(C)N1Cc2ccccc2C1)c1cc2c(C)noc2cc1C` [Example 181, N^2-{2-[1,3-dihydro-2H-isoindol-2-yl(methyl)amino]-2-oxoethyl}-N^2-(3,6-dimethyl-1,2-benzisoxazol-5-yl)-N^1-[2-(ethylamino)ethyl]glycinamide] the figure was 7.80. For the molecule `Cc1cc2oc(=O)n(C)c2cc1N(CC(=O)NCCNC(C)C)CC(=O)N(C)N1Cc2ccccc2C1` [Example 190, N^2-{2-[1,3-dihydro-2H-isoindol-2-yl(methyl)amino]-2-oxoethyl}-N^2-(3,6-dimethyl-1,3-benzoxazol-2(3H)-on-5-yl)-N^1-[2-(isopropylamino)ethyl]glycinamide], the pIC50 is 7.06. `CCNCCNC(=O)CN(CC(=O)N(C)N1Cc2ccccc2C1)c1cc2c(cc1C)oc(=O)n2C` [Example 191, N^2-{2-[1,3-dihydro-2H-isoindol-2-yl(methyl)amino]-2-oxoethyl}-N^2-(3,6-dimethyl-1,3-benzoxazol-2(3H)-on-5-yl)-N^1-[2-(ethylamino)ethyl]glycinamide]: the pIC50 was 7.29. For the molecule `Cc1cc2c(cc1N(CC(=O)NCCNC(C)C)CC(=O)N(C)N1Cc3ccccc3C1)oc(=O)n2C` [Example 192, N^2-{2-[1,3-dihydro-2H-isoindol-2-yl(methyl)amino]-2-oxoethyl}-N^2-(3,5-dimethyl-1,3-benzoxazol-2(3H)-on-6-yl)-N^1-[2-(isopropylamino)ethyl]glycinamide], the negative-log IC50 (pIC50) is 7.34. With `CCNCCNC(=O)CN(CC(=O)N(C)N1Cc2ccccc2C1)c1cc2oc(=O)n(C)c2cc1C` [Example 193, N^2-{2-[1,3-dihydro-2H-isoindol-2-yl(methyl)amino]-2-oxoethyl}-N^2-(3,5-dimethyl-1,3-benzoxazol-2(3H)-on-6-yl)-N^1-[2-(ethylamino)ethyl]glycinamide] the figure was 7.54. With `CCNCCNC(=O)CN(CC(=O)N(C)N1Cc2ccc(F)cc2C1)c1ccc(-c2noc(C)n2)cc1C` [Example 204, N^2-{2-[(5-fluoro-1,3-dihydro-2H-isoindol-2-yl)(methyl)amino]-2-oxoethyl}-N^2-[2-methyl-4-(5-methyl-1,2,4-oxadiazol-3-yl)phenyl]-N^1-[2-(ethylamino)ethyl]glycinamide] the figure was 7.19. As for `CCNCCNC(=O)CN(CC(=O)N(C)N1Cc2cccc(F)c2C1)c1ccc(-c2noc(C)n2)cc1C` [Example 205, N^2-{2-[(4-fluoro-1,3-dihydro-2H-isoindol-2-yl)(methyl)amino]-2-oxoethyl}-N^2-[2-methyl-4-(5-methyl-1,2,4-oxadiazol-3-yl)phenyl]-N^1-[2-(ethylamino)ethyl]glycinamide], the figure is 7.32; as for `CCNCCNC(=O)CN(CC(=O)N(C)N1Cc2ccccc2C1)c1ccc(C(C)=O)cc1C` [Example 210, N^2-(4-acetyl-2-methylphenyl)-N^2-{2-[1,3-dihydro-2H-isoindol-2-yl(methyl)amino]-2-oxoethyl}-N^1-[2-(ethylamino)ethyl]glycinamide], 7.47.

As to `CCNCCNC(=O)CN(CC(=O)N(C)N1Cc2ccc(F)cc2C1)c1ccc(C(C)=O)cc1C` [Example 211, N^2-(4-acetyl-2-methylphenyl)-N^2-{2-[(5-fluoro-1,3-dihydro-2H-isoindol-2-yl)(methyl)amino]-2-oxoethyl}-N^1-[2-(ethylamino)ethyl]glycinamide], the pIC50 was 7.29.

Consider `CCNCCNC(=O)CN(CC(=O)N(C)N1Cc2ccccc2C1)c1cc2c(cc1C)CCC2=O` [Example 214, N^2-{2-[1,3-dihydro-2H-isoindol-2-yl(methyl)amino]-2-oxoethyl}-N^2-(6-methyl-3-oxo-2,3-dihydro-1H-inden-5-yl)-N^1-[2-(ethylamino)ethyl]glycinamide], for which the negative-log IC50 (pIC50) was 7.64.

`CCNCCNC(=O)CN(CC(=O)N(C)N1Cc2cccc(F)c2C1)c1cc2c(cc1C)CCC2=O` [Example 216, N^2-{2-[(4-fluoro-1,3-dihydro-2H-isoindol-2-yl)(methyl)amino]-2-oxoethyl}-N^2-(6-methyl-3-oxo-2,3-dihydro-1H-inden-5-yl)-N^1-[2-(ethylamino)ethyl]glycinamide]: the negative logarithm of the IC50 (pIC50) was 7.48.

As to `CCNCCNC(=O)CN(CC(=O)N(C)N1Cc2ccc(F)cc2C1)c1ccc(-c2nc(C)no2)cc1C` [Example 231, N^2-{2-[(5-fluoro-1,3-dihydro-2H-isoindol-2-yl)(methyl)amino]-2-oxoethyl}-N^2-[2-methyl-4-(3-methyl-1,2,4-oxadiazol-5-yl)phenyl]-N^1-[2-(ethylamino)ethyl]glycinamide], the negative logarithm of the IC50 (pIC50) is 7.34.
